14 compounds from patent publication US20240415819A1, “MACROCYCLIC COMPOUNDS AS PROTEASOME SUBUNIT BETA TYPE-5 INHIBITORS” (Lead Discovery Center GmbH, priority 2021, published 2024) can be followed below.

Assay [1] concerns the target T1, β5 subunit of the human constitutive proteasome (CPS) (Homo sapiens, UniProt P28074).
T1 construct: purchased Boston Biochem E-360
Description: β5 inhibition assay, human constitutive proteasome (Suc-LLVY-AMC). The following applies: IC50 class, Suc-LLVY-AMC substrate. It counts as biochemical. Here is the method: The enzymatic activity of the β5 subunit of the human constitutive proteasome (CPS) is analyzed. In another assay, which differs from the assay of the human constitutive proteasome only in using the human immunoproteasome (IPS) the enzymatic activity of the β5 subunit of the human immunoproteasome (IPS) is analyzed. […] Inhibition is indicated as IC50 [nM] (“-”=not measured).

In assay [2] the target is T2, β5 subunit of the human immunoproteasome (IPS) (Homo sapiens, UniProt P28062).
T2 construct: purchased Boston Biochem E-370
In words: β5 inhibition assay, human immunoproteasome (Suc-LLVY-AMC). The following applies: IC50 class, Suc-LLVY-AMC substrate. The assay is classed as biochemical. The method, boiled down:
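Human immunoproteasome (1 nM final) was preincubated 10 min at RT with compound in 100 mM HEPES pH 7.5, 50 mM NaCl, 0.02% SDS, 1 mM DTT. Suc-LLVY-AMC (22.6 μM final) was then added for 4 h at RT in the dark. After stopping with 1 μM bortezomib, AMC fluorescence was read (ex 355/em 460 nm).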

Assay [3] relates to A549 (human lung carcinoma cell line). Description: Glo assay of A549 cells (Table 3; ProteasomeGlo plating scheme). The assay is classed as cell-based. The following applies: Homo sapiens; A549 cells; read-out: PGLo A549. The method in brief: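 Cells plated in 384 wells; compound, DMSO, staurosporine transferred by ECHO; 105 min, 37° C., 5% CO2; Proteasome-Glo (Suc-LLVY-Glo) reagent added; dark 10-15 min; luminescence; IC50 nM.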

The subject of assay [4] is Hs 746T (human gastric carcinoma cell line). Description: 48 hr CTG viability assay, Hs 746T. The assay is classed as cell-based. The following applies: Hs746T, 48 hr CTG, read-out: Hs 746T IC50. The method, boiled down:
(§1)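 Growth inhibition by compound over 48 h; IC50 (nM) derived from duplicate CellTiter-Glo luminescence readings across 0.0015–10 uM.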

The test system of assay [5] is MM1 S (B lymphoblast cell line). Description: 48 hr CTG viability assay, MM1S. It counts as cell-based. The following applies: Homo sapiens, 48 hr CTG, read-out: MM1S IC50. The method, boiled down: as §1
The test system of assay [6] is RPMI 8226 (B lymphocyte cell line, multiple myeloma). In words: 48 hr CTG viability assay, RPMI 8226. It counts as cell-based. Particulars: Homo sapiens, RPMI-8226; 48 hr CTG; read-out: RPMI-8226 IC50. The method in brief:
as §1

For `Cc1ccc2cc1CNC(=O)[C@H](CCc1ccccc1)NC(=O)[C@@H](NC(=O)CCN1CCC3(CCCC3)C1)CC(=O)N1CCCC(CCO2)C1` (stereo partly drawn) [Compound 652, N-((9S,12S)-5^4-methyl-8,11,14-trioxo-9-phenethyl-4-oxa-7,10-diaza-1(3,1)-piperidina-5(1,3)-benzenacyclotetradecaphane-12-yl)-3-(2-azaspiro[4.4]nonan-2-yl)propanamide], the IC50 in assay [1], in assay [2], in assay [3], in assay [4], in assay [5] and in assay [6] was < 100 nM in each case.

For `COc1ccccc1COCCC(=O)N[C@H]1CC(=O)N2CCCC(CCOc3ccc(C)c(c3)CNC(=O)[C@H](CCc3ccccc3)NC1=O)C2` (stereo partly drawn) [Compound 619, 3-((2-methoxybenzyl)oxy)-N-((9S,12S)-5^4-methyl-8,11,14-trioxo-9-phenethyl-4-oxa-7,10-diaza-1(3,1)-piperidina-5(1,3)-benzenacyclotetradecaphane-12-yl)propanamide], the IC50 in assay [1], in assay [2], in assay [3], in assay [4], in assay [5] and in assay [6] was < 100 nM in each case.

On to `Cc1ccc2cc1CNC(=O)[C@H](CCc1ccccc1)NC(=O)[C@@H](NC(=O)C1CC3CCC(C1)N3)CC(=O)N1CCCC(CCO2)C1` (stereo partly drawn) [Compound 723, N-((9S,12S)-5^4-methyl-8,11,14-trioxo-9-phenethyl-4-oxa-7,10-diaza-1(3,1)-piperidina-5(1,3)-benzenacyclotetradecaphane-12-yl)-8-azabicyclo[3.2]octane-3-carboxamide], for which the IC50 in assay [1] is < 100 nM; in assay [2], < 100 nM; in assay [3] it was < 100 nM; in assay [4], 100 to 500 nM; in assay [5], 100 to 500 nM; in assay [6], 100 to 500 nM.

On to `Cc1ccc2cc1CNC(=O)[C@H](CCc1ccccc1)NC(=O)[C@@H](NC(=O)CCN1CC3CCC1C3)CC(=O)N1CCCC(CCO2)C1` (stereo partly drawn) [Compound 673, 3-(2-azabicyclo[2.2.1]heptan-2-yl)-N-((9S,12S)-5^4-methyl-8,11,14-trioxo-9-phenethyl-4-oxa-7,10-diaza-1(3,1)-piperidina-5(1,3)-benzenacyclotetradecaphane-12-yl)propanamide], for which the IC50 in assay [1], in assay [2], in assay [3], in assay [4], in assay [5] and in assay [6] was < 100 nM each time.

`Cc1ccc2cc1CNC(=O)[C@H](CCc1ccccc1)NC(=O)[C@@H](NC1CC3CCC1C3)CC(=O)N1CCCC(CCO2)C1` (stereo partly drawn) [Compound 712, (9S,12S)-12-(bicyclo[2.2.1]heptan-2-ylamino)-5^4-methyl-9-phenethyl-4-oxa-7,10-diaza-1(3,1)-piperidina-5(1,3)-benzenacyclotetradecaphane-8,11,14-trione]: the IC50 was < 100 nM in assay [1]; < 100 nM in assay [2]; < 100 nM in assay [3]; 100 to 500 nM in assay [4]; < 100 nM in assay [5]; < 100 nM in assay [6].

Take `Cc1ccc2cc1CNC(=O)[C@H](CCc1ccccc1)NC(=O)[C@@H](NC(=O)CCN1CCC3(CC1)COC3)CC(=O)N1CCCC(CCO2)C1` (stereo partly drawn) [Compound 641, N-((9S,12S)-5^4-methyl-8,11,14-trioxo-9-phenethyl-4-oxa-7,10-diaza-1(3,1)-piperidina-5(1,3)-benzenacyclotetradecaphane-12-yl)-3-(2-oxa-7-azaspiro[3.5]nonan-7-yl)propanamide]: the IC50 in assay [1], in assay [2], in assay [3], in assay [4], in assay [5] and in assay [6] was < 100 nM throughout.

With `Cc1ccc2cc1CNC(=O)[C@H](CCc1ccccc1)NC(=O)[C@@H](NS(=O)(=O)Cc1ccccc1F)CC(=O)N1CCCC(CCO2)C1` (stereo partly drawn) [Compound 636, 1-(2-fluorophenyl)-N-((9S,12S)-5^4-methyl-8,11,14-trioxo-9-phenethyl-4-oxa-7,10-diaza-1(3,1)-piperidina-5(1,3)-benzenacyclotetradecaphane-12-yl)methanesulfonamide], the IC50 in assay [1], in assay [2], in assay [3], in assay [4], in assay [5] and in assay [6] was < 100 nM each time.

In the case of `Cc1ccc2cc1CNC(=O)[C@H](CCc1ccccc1)NC(=O)[C@@H](NC(=O)C1CC3(CCC3)C1)CC(=O)N1CCCC(CCO2)C1` (stereo partly drawn) [Compound 631, N-((9S,12S)-5^4-methyl-8,11,14-trioxo-9-phenethyl-4-oxa-7,10-diaza-1(3,1)-piperidina-5(1,3)-benzenacyclotetradecaphane-12-yl)spiro[3.3]heptane-2-carboxamide], the IC50 in assay [1], in assay [2], in assay [3], in assay [4], in assay [5] and in assay [6] was < 100 nM in each case.

As to `Cc1ccc2cc1CNC(=O)[C@H](CCc1ccccc1)NC(=O)[C@@H](NC(=O)CCNCC1CC1)CC(=O)N1CCCC(CCO2)C1` (stereo partly drawn) [Compound 694, 3-((cyclopropylmethyl)amino)-N-((9S,12S)-5^4-methyl-8,11,14-trioxo-9-phenethyl-4-oxa-7,10-diaza-1(3,1)-piperidina-5(1,3)-benzenacyclotetradecaphane-12-yl)propanamide], the IC50 in assay [1], in assay [2], in assay [3], in assay [4], in assay [5] and in assay [6] was < 100 nM throughout.

Consider `Cc1ccc2cc1CNC(=O)[C@H](CCc1ccccc1)NC(=O)[C@@H](NC(=O)CCNCc1ccc(OCC3CCCCC3)cc1)CC(=O)N1CCCC(CCO2)C1` (stereo partly drawn) [Compound 706, 3-((4-(cyclohexylmethoxy)benzyl)amino)-N-((9S,12S)-5^4-methyl-8,11,14-trioxo-9-phenethyl-4-oxa-7,10-diaza-1(3,1)-piperidina-5(1,3)-benzenacyclotetradecaphane-12-yl)propanamide], for which the IC50 in assay [1], in assay [2], in assay [3], in assay [4], in assay [5] and in assay [6] was < 100 nM in each case.

Turning to `Cc1ccc2cc1CNC(=O)[C@H](CCc1ccccc1)NC(=O)[C@@H](NC(=O)CCNC(=O)c1ccc(N3CCOCC3)cc1)CC(=O)N1CCCC(CCO2)C1` (stereo partly drawn) [Compound 604, N-(3-(((9S,12S)-5^4-methyl-8,11,14-trioxo-9-phenethyl-4-oxa-7,10-diaza-1(3,1)-piperidina-5(1,3)-benzenacyclotetradecaphane-12-yl)amino)-3-oxopropyl)-4-morpholinobenzamide], the IC50 in assay [1], in assay [2], in assay [3], in assay [4], in assay [5] and in assay [6] was < 100 nM in each case.

On to `Cc1ccc2cc1CNC(=O)[C@H](CCc1ccccc1)NC(=O)[C@@H](NC(=O)NC1CCCCC1)CC(=O)N1CCCC(CCO2)C1` (stereo partly drawn) [Compound 593, 1-cyclohexyl-3-((9S,12S)-5^4-methyl-8,11,14-trioxo-9-phenethyl-4-oxa-7,10-diaza-1(3,1)-piperidina-5(1,3)-benzenacyclotetradecaphane-12-yl)urea], for which the IC50 in assay [1], in assay [2], in assay [3], in assay [4], in assay [5] and in assay [6] was < 100 nM in each case.

As to `Cc1ccc2cc1CNC(=O)[C@H](CCc1ccccc1)NC(=O)[C@@H](NC(=O)CCNC1CC1)CC(=O)N1CCCC(CCO2)C1` (stereo partly drawn) [Compound 649, 3-(cyclopropylamino)-N-((9S,12S)-5^4-methyl-8,11,14-trioxo-9-phenethyl-4-oxa-7,10-diaza-1(3,1)-piperidina-5(1,3)-benzenacyclotetradecaphane-12-yl)propanamide], the IC50 in assay [1], in assay [2], in assay [3], in assay [4], in assay [5] and in assay [6] was < 100 nM in each case.

As for `Cc1ccc2cc1CNC(=O)[C@H](CCc1ccccc1)NC(=O)[C@@H](NC(=O)C(C)(C)CO)CC(=O)NCCCO2` [Compound 736, 3-hydroxy-2,2-dimethyl-N-((9S,12S)-1^4_ methyl-7,10,13-trioxo-12-phenethyl-2-oxa-6,11,14-triaza-1(1,3)-benzenacyclopentadecaphane-9-yl)propanamide], the IC50 in assay [1] was 1000 to 5000 nM; in assay [2] it was 1000 to 5000 nM; in assay [3], > 5000 nM; in assay [4] it was > 5000 nM; in assay [5], 1000 to 5000 nM; in assay [6], 1000 to 5000 nM.
